Measurements reported in patent US20040214767A1, “Regulation of follicular development and ovulation by cytoskeletal genes and gene products” (priority 2002, published 2004).

System: rat primary granulosa cells
Assay: Effects of CHX and alpha-amanitin on FSH/forskolin-induced expression of cytoskeletal genes in granulosa cells
Format: cell-based
Conditions: for β-tubulin mRNA: with or without FSH
Procedure: FIG. 8. Effects of CHX and alpha-amanitin treatment on the FSH/forskolin-induced expression of the cytoskeletal genes. Granulosa cells were isolated from the ovaries of 170 estradiol primed 24 day old immature rats. They were cultured in the medium containing FSH (30 ng/ml) or forskolin (10 microM, FSK) in the presence or absence of CHX (10 μg/ml) for 6 hours (A) or 24 hours (B). In addition, the 24 hours cells were also cultured, likewise, in the presence of alpha-amanitin (30 microg/ml, AMA). Total RNA was isolated and analyzed for mRNAs of TM4, Khc, beta-tubulin and inhibin alpha as described in the description of FIG. 7. Values are the meanfold increase over control (no treatment)±SE. Values were pooled from two separate experiments.
As a step to determine the mechanisms of the FSH-responsive mRNA expression, the granulosa cells were treated with FSH in the presence or absence of a translation inhibitor, CHX, and a transcription inhibitor, alpha amanitin.
Eighteen to twenty-one day old Sprague-Dawley female pups with nursing mothers were purchased from Harlan Breeding Company (Indianapolis, Ind.) and housed in a photoperiod of 14 h light/10 h darkness with light on at 0500 h. For in situ hybridization, rats were injected subcuteneoulsy with 15 IU PMSG (Sigma) in 0.1 ml PBS on 22-23 days of age. Depending on the experiments, PMSG 48 hours-primed rats were injected i.p. with 10 IU hCG. Ovaries were frozen on dry ice immediately after excision and stored at −80 C. […] Ovaries were collected in ice-cold serum-free 4F medium consisting of 15 mM HEPES (pH 7.4), 50% DMEM and 50% Ham's F12 with bovine transferrin (5 micro g/ml), human insulin (2 mg/ml), hydrocortisone (40 ng/ml) and antibiotics, and processed as previously described. Cells were washed three times, resuspended in 4F, plated on serum-coated. Six-well plate (1×10^6 cells in 2 ml per well), and incubated at 37 C for 16 hours. FSH (30 ng/ml) or forskolin (10 micro M) was added to the cell cultures. For the inhibition of protein synthesis or transcription, 10 micro g/ml of cycloheximide (CHX) or alpha-amanitin (30 microg/ml) was, respectively, added 1 h before hormone treatment.
RT-PCR was performed essentially as previously described (Ko, et al., Endocrinology 140:5185-5194. Total RNA (1-2 micro g) was reverse-transcribed at 37 C in a 20 micro L reaction volume using random hexamer (500 ng) and MMLV reverse transcriptase (10 units) (New England BioLabs, Boston, Mass.). Complementary DNA (cDNA) samples (2 micro L) were added to a total 25 micro L reaction mix containing the primers (200 ng each), 0.4 mM dNTP mixture, and Taq DNA polymerase (2.5 U) in 1×PCR buffer (10 mM Tris, pH 8.3, 50 mM KCl, 1.5 mM MgCl2, 0.01% gelatin). All PCR amplifications were carried out for 20, 25 or 30 cycles on a MJ Research Minicycler. PCR products were separated by 2% agarose gel electrophoresis, stained with SYBR® Green I (Molecular Probes), and visualized by phosphoimaging technology (FLA-2000; Fuji, Stamford, Conn.). The following primers were used in the present studies: TM4 (5′-gag aac tcc tga ctg aac tgg acg-3′(SEQ ID NO. 1) and 5′-cca tat tcc ctg ctg agc gta g-3′(SEQ ID NO. 2), 282 bp), Khc (5′-aac tga atc gcc tcc aag cag-3′ and 5′-cga act ggc gag aac tgg atg-3′, 195 bp), β-tubulin (5′-cct gct cat cag caa gat tcg-3′(SEQ ID NO. 3) and 5′-gtg gtg agc tta agg gta cgg, (SEQ ID NOI 4) 210 bp), and inhibin alpha subunit (5′-gct ttc cct ctg ttg acc cac-3′ (SEQ ID NO. 5) and 5′-aga tgt tga ggg cag ctc gat-3′, (SEQ ID NO. 6) 255 bp). L-19 (5′-ctg aag gtc aaa ggg aat gtg-3 (SEQ ID NO. 7) and 5′-gga cag agt ctt gat gat ctc, (SEQ ID NO. 8) 194 bp) oligo nucleotide primers were used to amplify ribosomal protein L-19 as an internal control.

[1] = CHX, cells treated with FSH for 24 hours
[2] = CHX, cells treated with FSH for six hours
[3] = cells treated with FSH for 24 hours
[4] = alpha-amanitin 30 microg/ml, 24 hours

In the case of C[C@@H]1C[C@@H]([C@H](O)CC2CC(=O)NC(=O)C2)C(=O)[C@@H](C)C1 [CHX, cycloheximide], the “β-tubulin mRNA level” value (24 hours FSH in the presence of CHX) was “decreased to apparent basal level”, the “β-tubulin mRNA” value (CHX 10 μg/ml, 6 hours) was “could not be detected” and the “TM4 mRNA level” value [1] was “slightly enhancing”. For the same compound, the “inhibin alpha mRNA level” value [1] was “substantially suppressing”, the “Khc mRNA level” value [2] was “lowered the Khc mRNA level, though not completely” and the “TM4 mRNA level” value [2] was “increased”. For the same compound, the “inhibin alpha mRNA level” value [2] was “increased” and the “effect on Khc mRNA level” value [3] was “marginal”.

With CC[C@H](C)[C@@H]1NC(=O)CNC(=O)[C@@H]2Cc3c([nH]c4cc(O)ccc34)[S+]([O-])C[C@@H](NC(=O)CNC1=O)C(=O)N[C@@H](CC(N)=O)C(=O)N1C[C@H](O)C[C@H]1C(=O)N[C@@H]([C@@H](C)[C@@H](O)CO)C(=O)N2 (stereo partly drawn) [alpha amanitin, alpha-amanitin] the “FSH-induced mRNA expression of all of the cytoskeletal and inhibin alpha genes” value [4] was “blocked”, the “β-tubulin mRNA” value [4] was “blocked both the maintenance and FSH dependent increase” and the “effect on Khc mRNA level” value [3] was “marginal”.
